Laboratory results published in patent US9732046B2, “Substituted 1,2,4-triazines as tubulin inhibitors” (YM Biosciences Australia Pty Ltd., priority 2003, dated 2017).

Columns and labels:
Type in all cases: cell-based
PC3 (Prostate Cancer) = test: Cellular growth inhibition assay (MTT), PC3; conditions: Table 1, 40 hr incubation
Protocol: (§1) For screening purposes, compounds were diluted in 96 well plates at a concentration of 20 μM. Plates were warmed at 37° C. for 30 minutes before assay.
(§2) K562 (Chronic Myeloid Leukemia), PC3 (Prostate Cancer), and DU145 (Prostate Cancer) were obtained from the American Type Culture Collection (ATCC). K562 was grown in RPMI, with 10% FBS with Glutamx added. DU145 cells were cultured in DMED, with 10% FBS and Glutamx and MEM non-essential amino acids added. PC3 cells were grown in F12K medium, with 10% FBS and Glutamx and MEM non-essential amino acids added. All cells were grown at 37° C. in 5% CO2.
(§3) Cell suspensions were prepared by harvesting cells from culture. (Cells used in this test should be in later log phase growth and high viability.) Cells were diluted in correct growth medium to 1.1× final concentration (from 50000 cell/mL to 200,000 cell/mL, depending on cell line).
(§4) Compounds to be tested were added (10 μL, 10× final concentration) to a flat bottom 96-well plate. The cellular suspension (90 μL per well) was added, and the plate incubated for 40 hr at 37° C., 5% CO2. MTT (20 μL per well, 5 mg/mL in PBS) was added and the plates were returned to the incubator for a further 6 hours. Lysis buffer (100 μL per well, 10% SDS, 0.01N HCl) was added and the plate stored in the incubator overnight. The plate was then read at 590 nm.

[1] = system: K562 (Chronic Myeloid Leukemia); test: Cellular growth inhibition assay (MTT), K562; conditions: Homo sapiens, Table 1, 40 hr incubation
Protocol: as §1, §2, §3, §4

[2] = biological target: T1, TelJak2 (BaF3 TELJAK cells, TEL/Jak2 fusion) (Homo sapiens, UniProt O60674); test: Cellular growth inhibition assay (MTT), BaF3 TEL:JAK2 cell line; conditions: Table 1, 40 hr incubation
T1 construct: The regions encompassing the kinase domain of JAK2 (nucleotides 2994-3914); expressed in transfected cells; host or cells: BaF3 cells bearing the pTET-off plasmid, transfected with pTELJAK2 (pTRE2 vector); the other entry of the earlier key: ETV6 (P41212, Transcription factor ETV6)
Protocol: as §1
(§5) The coding region encompassing nucleotides 1-487 of TEL was amplified by PCR using the oligonucleotides 5TEL (5′-GGAGGATCCTGATCTCTCTCGCTGTGAGAC-3′) (SEQ ID NO: 1) and 3TEL (5′-AGGC GTCGACTTCTTCTTGATGGTTCTG-3′) (SEQ ID NO: 2) and U937 mRNA as template. A BamH I site was incorporated into the 5TEL primer, and a Sal I site was incorporated into the 3TEL primer. The regions encompassing the kinase domain of JAK2 (nucleotides 2994-3914; JAK2F 5′-ACGC GTCGACGGTGCCTTTGAAGACCGGGAT-3 (SEQ ID NO: 3); JAK2R 5′-ATAGTTTAGCGGCCGCTCAGAATGAAGGTCATTT-3′) (SEQ ID NO: 4) and JAK3 (nucleotides 2520-3469; JAK3F 5′-GAAGTCGACTATGCCTGCCAAGACCCCACGATCTT-3′ (SEQ ID NO: 5); JAK3R 5′-GGATCTAGACTATGAAAAGGACAGGGAGTGGTGTTT-3′ (SEQ ID NO: 6)) were generated by PCR using Taq DNA polymerase (Gibco/BRL) and U937 mRNA as template. A Sal I site was incorporated into the forward primer of JAK2 and JAK3, a Not I site was incorporated into the JAK2 reverse primer and a Xba I site was added to the reverse primer of JAK3.
(§6) A TEL/Jak2 fusion was generated by digestion of the TELPCR product with BamH I/Sa1 I, digestion of the JAK2 PCR product with Sa1 I/Not I followed by ligation and subcloning into the mammalian expression Vector pTRE 2 (Clontech) digested with BamH I-Not I (pTELJAK2). For JAK3 Sa1 I/Not I cleaved kinase domain PCR product was ligated with BamH I/Sa1 I cleaved TELproduct followed by ligation into BamH I/Not I cleaved pTRE2 (pTELJAK3).
(§7) The growth factor dependent myelomonocytic cell line BaF3 bearing the pTET-off plasmid (Clontech) was transfected with either pTELJAK2 or pTELJAK3 and the cells selected for factor independent growth. BaF 3 wild type cells were cultured in DMEM 10% FCS, 10% WEHI 3B conditioned medium. BaF3 TELJAK cells were cultured in DMEM 10% Tet-System Approved FBS (without WEHI 3B conditioned medium).
as §3, §4

[3] = biological target: T2, TelJak3 (BaF3 TELJAK cells, TEL/JAK3 fusion) (Homo sapiens, UniProt P52333); test: Cellular growth inhibition assay (MTT), BaF3 TEL:JAK3 cell line; conditions: Table 1, 40 hr incubation
T2 construct: For JAK3 Sa1 I/Not I cleaved kinase domain PCR product was ligated with BamH I/Sa1 I cleaved TELproduct; expressed in transfected cells; host or cells: BaF3 cells bearing the pTET-off plasmid, transfected with pTELJAK3 (pTRE2 vector); the other entry of the earlier key: ETV6 (P41212, Transcription factor ETV6)
Protocol: as §1, §5, §6, §7, §3, §4

DU145 (Prostate Cancer) = test: Cellular growth inhibition assay (MTT), DU145; conditions: Homo sapiens, DU-145, Table 1, 40 hr incubation
Protocol: as §1, §2, §3, §4

T1 sequence (O60674 with tags, fused parts or gaps): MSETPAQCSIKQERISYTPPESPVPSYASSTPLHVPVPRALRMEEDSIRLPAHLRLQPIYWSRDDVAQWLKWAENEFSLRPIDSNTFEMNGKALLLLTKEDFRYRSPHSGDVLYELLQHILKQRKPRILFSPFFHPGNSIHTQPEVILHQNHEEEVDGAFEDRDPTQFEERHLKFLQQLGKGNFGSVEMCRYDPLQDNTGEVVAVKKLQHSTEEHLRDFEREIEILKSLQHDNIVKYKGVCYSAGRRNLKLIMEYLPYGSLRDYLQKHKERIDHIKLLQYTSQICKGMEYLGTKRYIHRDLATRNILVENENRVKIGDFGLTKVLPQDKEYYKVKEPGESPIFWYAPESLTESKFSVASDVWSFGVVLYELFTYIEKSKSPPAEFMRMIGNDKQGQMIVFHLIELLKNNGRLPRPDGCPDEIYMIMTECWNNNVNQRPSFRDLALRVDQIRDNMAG
T2 sequence (P52333 with tags, fused parts or gaps): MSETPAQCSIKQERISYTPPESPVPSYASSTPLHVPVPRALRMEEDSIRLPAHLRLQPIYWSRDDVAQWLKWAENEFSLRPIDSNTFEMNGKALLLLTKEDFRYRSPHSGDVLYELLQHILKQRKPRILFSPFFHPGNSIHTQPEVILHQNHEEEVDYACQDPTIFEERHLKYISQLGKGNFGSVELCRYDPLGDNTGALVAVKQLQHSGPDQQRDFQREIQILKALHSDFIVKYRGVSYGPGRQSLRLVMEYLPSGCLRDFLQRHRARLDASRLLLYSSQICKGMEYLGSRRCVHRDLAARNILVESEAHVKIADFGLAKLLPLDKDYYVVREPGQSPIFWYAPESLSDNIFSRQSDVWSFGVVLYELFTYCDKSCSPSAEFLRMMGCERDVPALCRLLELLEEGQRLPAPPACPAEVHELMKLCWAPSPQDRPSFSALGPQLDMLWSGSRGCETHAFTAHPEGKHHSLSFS

| SMILES | inhibition at 20 µM (PC3 (Prostate Cancer)) [%] | inhibition at 20 µM [1] [%] | inhibition at 20 µM [2] [%] | inhibition at 20 µM [3] [%] | inhibition at 20 µM (DU145 (Prostate Cancer)) [%] |
| --- | --- | --- | --- | --- | --- |
| CCCC(Nc1cncc(-c2ccc(C(=O)N3CCOCC3)cc2)n1)c1ccccc1 (stereo not drawn) | < 50 | < 50 | > 50 | > 50 | – |
| CCCC(Nc1cncc(-c2ccc(CN(C)C)cc2)n1)c1ccccc1 (stereo not drawn) | < 50 | > 50 | > 50 | > 50 | < 50 |
| COc1cc(-c2ncc(C)c(NC(CCO)c3ccccc3)n2)ccc1O (stereo not drawn) | < 50 | > 50 | > 50 | > 50 | > 50 |
| CCNC(=O)Nc1ccc(-c2cncc(NC(C)c3cccnc3)n2)cc1OC (stereo not drawn) | < 50 | – | > 50 | > 50 | – |
| CCCC(Nc1cncc(-c2ccc(CNC(=O)C3CCC(=O)N3)cc2)n1)c1ccccc1 (stereo not drawn) | < 50 | > 50 | > 50 | > 50 | < 50 |
| CCCC(Nc1cncc(-c2ccc(NC(=O)C3CCNCC3)c(OC)c2)n1)c1cccnc1 (stereo not drawn) | < 50 | > 50 | > 50 | < 50 | < 50 |
| CCCC(Nc1cncc(-c2ccc(C(=O)NCCCN(CC)CC)cc2)n1)c1ccccc1 (stereo not drawn) | < 50 | > 50 | > 50 | > 50 | > 50 |
| CCCC(Nc1cncc(-c2ccc(CN3CCN(C)CC3)cc2)n1)c1ccccc1 (stereo not drawn) | < 50 | < 50 | > 50 | > 50 | < 50 |
| CCCC(Nc1cncc(-c2ccc(NC(=O)N3CCN(C)CC3)c(OC)c2)n1)c1cccnc1 (stereo not drawn) | > 50 | < 50 | > 50 | > 50 | < 50 |
| CCCC(Nc1cncc(-c2ccc(NC(=O)c3cccnc3)c(OC)c2)n1)c1cccnc1 (stereo not drawn) | < 50 | > 50 | > 50 | > 50 | < 50 |
| CCCC(Nc1cncc(-c2ccc(OCCCN3CCOCC3)c(OC)c2)n1)c1ccccc1 (stereo not drawn) | > 50 | > 50 | > 50 | > 50 | < 50 |
| CCCC(Nc1cncc(-c2ccc(CN3CCC[C@H]3CO)cc2)n1)c1ccccc1 (stereo partly drawn) | < 50 | > 50 | > 50 | > 50 | < 50 |
| CCCC(Nc1cncc(-c2ccc(NC(=O)NCCCN(CC)CC)c(OC)c2)n1)c1cccnc1 (stereo not drawn) | < 50 | < 50 | > 50 | > 50 | < 50 |
| CCCC(Nc1cncc(-c2ccc(CO)c(OC)c2)n1)c1cccnc1 (stereo not drawn) | < 50 | > 50 | > 50 | > 50 | < 50 |
| CCCC(Nc1cncc(-c2ccc(OCCCN3CCN(C)CC3)c(OC)c2)n1)c1cccnc1 (stereo not drawn) | < 50 | < 50 | > 50 | > 50 | < 50 |
| COc1cc(-c2nc(N[C@H](C)c3ccccc3)nnc2C)ccc1O | < 50 | > 50 | > 50 | > 50 | < 50 |
| CCCC(Nc1cncc(-c2ccc(C(=O)NCCCN3CCOCC3)cc2)n1)c1ccccc1 (stereo not drawn) | < 50 | < 50 | > 50 | > 50 | < 50 |
| CCCC(Nc1nnc(C)c(-c2cc(OC)c(OC)c(OC)c2)n1)c1ccccc1 (stereo not drawn) | < 50 | > 50 | > 50 | > 50 | < 50 |
| CCC[C@H](Nc1cncc(-c2ccc(NC(=O)CN(C)C)c(OC)c2)n1)c1cccnc1 | > 50 | > 50 | > 50 | > 50 | > 50 |
| CCCC(Nc1cncc(-c2ccc(OCCCCN3CCOCC3)c(OC)c2)n1)c1ccccc1 (stereo not drawn) | < 50 | > 50 | > 50 | > 50 | < 50 |
| CCCC(Nc1cncc(-c2cc(OC)c(OC)c(OC)c2)c1)c1ccccc1 (stereo not drawn) | > 50 | > 50 | > 50 | > 50 | < 50 |
| CCCC(Nc1cncc(-c2ccc(C(=O)NCCN(C)C)cc2)n1)c1ccccc1 (stereo not drawn) | < 50 | < 50 | > 50 | > 50 | < 50 |
| CCCC(Nc1cncc(-c2ccc(CN3CCCCC3)cc2)n1)c1ccccc1 (stereo not drawn) | < 50 | < 50 | > 50 | > 50 | < 50 |
| CCCC(Nc1cncc(-c2ccc(CN3CCC(O)CC3)cc2)n1)c1ccccc1 (stereo not drawn) | < 50 | > 50 | > 50 | > 50 | < 50 |
| CCCC(Nc1cncc(-c2ccc(NC(=O)NCC)cc2)n1)c1cccnc1 (stereo not drawn) | < 50 | > 50 | > 50 | > 50 | < 50 |
| CCCC(Nc1cncc(-c2ccc(C(=O)NCCCCCN)c(C)c2)n1)c1cccnc1 (stereo not drawn) | < 50 | > 50 | > 50 | > 50 | < 50 |
| COc1cc(-c2nc(N[C@H](C)c3ccccc3)nnc2C)cc(OC)c1OC | < 50 | < 50 | > 50 | > 50 | < 50 |
| CCCC(Nc1cncc(-c2ccc(OCCCN3CCCC3)c(OC)c2)n1)c1cccnc1 (stereo not drawn) | < 50 | > 50 | > 50 | > 50 | < 50 |
| CCCC(Nc1cncc(-c2ccc(C(=O)N3CCN(C)CC3)cc2)n1)c1ccccc1 (stereo not drawn) | < 50 | < 50 | > 50 | > 50 | – |
